Experimental data taken from patent US20080267903A1, “Bioactive Polymers” (priority 2004, published 2008).
“And” between values parts separate entries of the source, which are not always exact repeats. Equal entries are not always repeated.

Legend:
[1] = cited from earlier work
[2] = Systemic toxicity, tolerability and body weight after intravenous injection (FIG. 3); assay type: in vivo
Procedure: All formulations were prepared as solutions (or suspensions) in 5% dextrose. Each dose contained 250 μg of DAB 4, DAB 16, DAB 32, QDAB8, respectively. The PAMAM dendrimer and linear PEI were given as dilutions of Superfect (100 μl per animal) and Exgen (9 μl per animal) respectively, in 5% dextrose solution.
(§4) Animals were injected intravenously (0.2 ml per injection) with the different formulations either once or alternatively on a schedule every other day (0.5 q.d.) over 10 days (every second day, 5 injection). […] Each group consisted of 5 animals (n=5). As a control DAB 16-DNA complexes were prepared as previously described [36] by mixing dendrimer and DNA (50 μg) at a 5:1 weight ratio in a 5% dextrose solution (200 μl/animal). Free plasmid DNA (50 μg) was given in 200 μL 5% dextrose. Animals were monitored at regular intervals, the tumour size was determined using callipers, and body weight measured and recorded.

[3] = system: C33a Human Cervix Carcinoma (ATCC HTB31) xenografts; assay: Established C33a xenografts, treatment q.2d 5x (FIG. 5); assay type: in vivo, mice; details: C33a cervix carcinomas, q.2d 5x i.v.
Procedure: (§1) Female mice (CD1-nu, initial mean weight 20 g) were housed in groups of five in suspended plastic cages at 19-23° C. with a 12 h light-dark cycle. A conventional diet (Rat and Mouse Standard Expanded, B and K Universal, Grimston, UK) and water from the mains were available ad libidum. Experimental work was carried out in accordance with UK Home Office regulations and approved by the local ethics committee.
(§2) Tumour cells [LS174 Human Colorectal Adenocarcinoma (ATCC CL-188), A431 Epidermoid Carcinoma (ATCC CRL-1555), C33a Human Cervix Carcinoma (ATCC HTB31)] were grown as monolayers in 75 cm^2 flasks in Dulbecco's Modified Eagle's Medium (DMEM) supplemented with 10% (v/v) foetal bovine serum (FBS) and 1% (v/v) glutamine, in a humid atmosphere of 5% CO2 at 37° C. Medium was changed twice a week. Cells were subcultured every seven days by trypsin treatment and experiments were conducted when the cells were in exponential phase. […]
(§3) Animals were injected intravenously (0.2 ml per injection) with the different formulations either once or alternatively on a schedule every other day (0.5 q.d.) over 10 days (every second day, 5 injection). […] Animals were monitored at regular intervals, the tumour size was determined using callipers, and body weight measured and recorded. Expression of genes containined on nucleic acids complexed with the various polymers was measured as described previously.

[4] = system: A431 epidermoid carcinoma (ATCC CRL-1555); assay: Established A431 xenografts, repeated injection every 2nd day over 10 days, long-term follow-up (FIGS. 6-8)
Procedure: A431 epidermoid carcinoma tumours were grafted into nude CD-1 mice and left to establish (˜5 mm). Animals were treated by injection of the relevant formulation every 2nd day over 10 days (5 injections). […] Tumour volume doubling time was measured as a surrogate endpoint as substantial tumour growth immediately precedes tumour related mortality.
All formulations were prepared as solutions (or suspensions) in 5% dextrose.
as §4

[5] = system: LS174T Human Colorectal Adenocarcinoma (ATCC CCL-188) xenografts; assay: Established LS174T xenografts, treatment q.2d 5x (FIG. 4); assay type: in vivo, mice; details: LS174T colorectal tumours, q.2d 5x i.v.
Procedure: as §1, §2, §3

[6] = system: A431 epidermoid carcinoma cells; assay: Cytostatic effects of cationic polymers on tumour cells in vitro (FIG. 1); assay type: cell-based; details: lysis control
Procedure: A431 epidermoid carcinoma cells were treated with various cationic polymers. PEI, Superfect and various DAB polymers were added to the culture medium at concentrations of 0.45 μL/mL, 5 μL/mL and 12.5 μg/mL respectively for the duration of the experiment.

## C[C@H](N)C(=O)O [Alanine]
[1]
  pKa of the α-NH3+ group: 9.9

## N[C@@H](CC(=O)O)C(=O)O [Aspartic acid]
[1]
  pKa of the α-NH3+ group: 10.0

## NCCCN(CCCN)CCCN(CCCCN(CCCN(CCCN)CCCN)CCCN(CCCN)CCCN)CCCN(CCCN)CCCN [DAB8]
[2]
  time to death after i.v. injection: 5 to 10 s

## NCCCN(CCCN)CCCN(CCCN(CCCN)CCCN)CCCN(CCCCN(CCCN(CCCN(CCCN)CCCN)CCCN(CCCN)CCCN)CCCN(CCCN(CCCN)CCCN)CCCN(CCCN)CCCN)CCCN(CCCN(CCCN)CCCN)CCCN(CCCN)CCCN [DAB16]
[3]
  tumour growth: inhibited tumour growth significantly
[4]; 0.5 q.d. X5, long term experiment
  survival of the treated mice: long term survival
[4]; 0.5 q.d. X5, n=5
  complete disappearance of tumours, 2 mice: 43 days and 51 days
  start of decrease of the tumour size, 2 mice: 23 days
  start of decrease of the tumour size, all the mice: 33 days
[4]; 5 injections over 10 days, FIG. 7
  long-term tumour growth delay (tumour volume doubling time as surrogate endpoint): improved long-term growth reduction
[4]; A431 epidermoid carcinoma model, q.2d 5x i.v.
  tumour growth: inhibited tumour growth significantly
[5]
  tumour growth: inhibited tumour growth significantly

## N[C@@H](CO)C(=O)O [Serine]
[1]
  pKa of the α-NH3+ group: 9.1

## triton X
[6]
  cell number: decrease in cell number consistent with cell lysis
